Activity calls are given as the source filed them. No cut-off for these calls is given here.
Columns and labels:
[1] = target: T1, Poly [ADP-ribose] polymerase 1 (Homo sapiens, UniProt P09874); details: dose 10.0 nM, time 45.0 min
[2] = target: T2, Poly [ADP-ribose] polymerase tankyrase-2 (Homo sapiens) (UniProt Q9H2K2); details: dose 10.0 nM, time 1.0 hrs
T2 sequence (whole entry): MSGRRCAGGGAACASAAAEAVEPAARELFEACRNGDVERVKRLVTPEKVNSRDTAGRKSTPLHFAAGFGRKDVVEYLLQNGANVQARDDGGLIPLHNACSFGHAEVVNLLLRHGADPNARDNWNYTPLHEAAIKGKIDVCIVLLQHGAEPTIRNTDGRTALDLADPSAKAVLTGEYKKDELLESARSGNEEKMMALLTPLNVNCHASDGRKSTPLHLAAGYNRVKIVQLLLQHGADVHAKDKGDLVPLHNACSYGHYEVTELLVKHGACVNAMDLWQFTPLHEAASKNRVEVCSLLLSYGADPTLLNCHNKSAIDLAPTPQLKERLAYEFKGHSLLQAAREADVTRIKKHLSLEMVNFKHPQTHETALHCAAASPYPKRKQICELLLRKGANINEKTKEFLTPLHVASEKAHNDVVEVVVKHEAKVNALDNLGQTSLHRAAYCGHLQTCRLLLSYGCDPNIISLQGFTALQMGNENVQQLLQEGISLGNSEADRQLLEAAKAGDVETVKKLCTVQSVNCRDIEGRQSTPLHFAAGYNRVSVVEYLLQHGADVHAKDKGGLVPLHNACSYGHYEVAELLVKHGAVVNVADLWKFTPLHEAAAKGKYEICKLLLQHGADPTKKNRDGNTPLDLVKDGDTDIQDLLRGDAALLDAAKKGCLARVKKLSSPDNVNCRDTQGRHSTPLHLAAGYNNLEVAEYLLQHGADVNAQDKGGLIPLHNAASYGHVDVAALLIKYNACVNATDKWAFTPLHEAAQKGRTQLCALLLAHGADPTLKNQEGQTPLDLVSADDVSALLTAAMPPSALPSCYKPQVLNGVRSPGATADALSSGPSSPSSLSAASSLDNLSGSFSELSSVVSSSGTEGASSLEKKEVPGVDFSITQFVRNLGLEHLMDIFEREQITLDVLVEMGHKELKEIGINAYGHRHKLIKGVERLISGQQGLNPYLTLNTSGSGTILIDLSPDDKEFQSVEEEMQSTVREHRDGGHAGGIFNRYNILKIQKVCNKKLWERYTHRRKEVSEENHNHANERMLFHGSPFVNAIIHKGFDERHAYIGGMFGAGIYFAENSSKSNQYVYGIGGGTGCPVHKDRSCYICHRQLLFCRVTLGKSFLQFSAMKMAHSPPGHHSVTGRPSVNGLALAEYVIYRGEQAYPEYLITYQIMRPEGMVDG

[3] = target: T1, Poly [ADP-ribose] polymerase 1; assay: Inhibition of PARP-1 (unknown origin) using biotinylated NAD+ as substrate incubated for 45 mins in the presence of deoxy-oligonucleotide by microplate reader method relative to control
[4] = target: T3, Poly [ADP-ribose] polymerase tankyrase-1 (Homo sapiens, UniProt O95271); assay: Inhibition of TNKS1 (unknown origin) using biotin-NAD+ as substrate incubated for 1 hr in the presence of deoxy-oligonucleotide by ELISA analysis relative to control
T3 sequence (O95271 whole entry): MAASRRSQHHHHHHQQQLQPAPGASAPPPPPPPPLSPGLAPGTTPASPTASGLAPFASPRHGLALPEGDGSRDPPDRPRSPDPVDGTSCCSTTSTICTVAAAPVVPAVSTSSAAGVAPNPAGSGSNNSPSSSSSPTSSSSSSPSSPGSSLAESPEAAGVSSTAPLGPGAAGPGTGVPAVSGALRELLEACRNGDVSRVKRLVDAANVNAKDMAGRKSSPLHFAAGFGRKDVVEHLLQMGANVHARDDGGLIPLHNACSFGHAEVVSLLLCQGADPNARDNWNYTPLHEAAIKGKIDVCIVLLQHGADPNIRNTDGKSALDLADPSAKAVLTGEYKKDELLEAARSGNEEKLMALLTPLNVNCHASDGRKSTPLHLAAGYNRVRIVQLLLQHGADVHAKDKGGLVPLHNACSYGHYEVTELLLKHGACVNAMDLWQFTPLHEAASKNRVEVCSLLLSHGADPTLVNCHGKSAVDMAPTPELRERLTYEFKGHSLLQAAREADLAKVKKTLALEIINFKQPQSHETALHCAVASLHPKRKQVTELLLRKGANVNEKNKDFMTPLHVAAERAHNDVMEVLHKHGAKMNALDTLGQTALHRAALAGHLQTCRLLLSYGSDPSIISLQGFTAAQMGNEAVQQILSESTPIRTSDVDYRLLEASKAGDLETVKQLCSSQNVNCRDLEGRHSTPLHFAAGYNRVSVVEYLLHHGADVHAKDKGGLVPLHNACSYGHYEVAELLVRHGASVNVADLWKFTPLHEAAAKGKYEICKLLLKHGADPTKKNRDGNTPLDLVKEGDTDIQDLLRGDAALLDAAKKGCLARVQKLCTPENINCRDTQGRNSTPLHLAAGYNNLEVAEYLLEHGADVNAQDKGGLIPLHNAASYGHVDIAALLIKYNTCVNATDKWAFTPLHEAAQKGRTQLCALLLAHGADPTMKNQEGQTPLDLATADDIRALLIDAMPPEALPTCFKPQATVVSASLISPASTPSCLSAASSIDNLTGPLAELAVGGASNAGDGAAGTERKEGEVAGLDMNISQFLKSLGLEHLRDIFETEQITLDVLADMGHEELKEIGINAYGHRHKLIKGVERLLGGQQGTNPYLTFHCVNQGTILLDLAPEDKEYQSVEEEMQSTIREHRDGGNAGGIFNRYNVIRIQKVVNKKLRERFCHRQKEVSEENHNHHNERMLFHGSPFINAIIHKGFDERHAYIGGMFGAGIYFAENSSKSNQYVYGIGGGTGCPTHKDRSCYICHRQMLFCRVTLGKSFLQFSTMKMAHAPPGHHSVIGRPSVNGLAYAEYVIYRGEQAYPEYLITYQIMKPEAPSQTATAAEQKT

[5] = target: T4, Poly [ADP-ribose] polymerase tankyrase-2 (Homo sapiens, UniProt Q9H2K2); assay: Inhibition of TNKS2 (unknown origin) using biotin-NAD+ as substrate incubated for 1 hr in the presence of deoxy-oligonucleotide by ELISA analysis relative to control
T4 sequence (Q9H2K2 whole entry): T2 sequence (whole entry)

[6] = target: T5, Poly [ADP-ribose] polymerase tankyrase-1 (Homo sapiens) (UniProt O95271); details: dose 10.0 nM, time 1.0 hrs
T5 sequence (whole entry): T3 sequence (O95271 whole entry)

MDA-MB-231 = assay: Antiproliferative activity against human MDA-MB-231 cells assessed as inhibition of cell growth incubated for 7 days by MTT assay; type: functional, cell-based; details: MDA-MB-231, 168 h
HCT-116 [7] = assay: Antiproliferative activity against human HCT-116 cells assessed as inhibition of cell growth incubated for 7 days by MTT assay; type: functional, cell-based; details: HCT-116, 168 h
MDA-MB-468 = assay: Antiproliferative activity against human MDA-MB-468 cells assessed as inhibition of cell growth incubated for 7 days by MTT assay; type: functional, cell-based; details: MDA-MB-468, 168 h
[8] = Cytotoxicity against mouse AML12 cells assessed as reduction in cell viability incubated for 7 days by MTT assay; type: toxicity, cell-based; details: time 7 day
HCT-116 [9] = assay: Inhibition of Wnt/beta-Catenin signaling in human HCT-116 cells assessed as increase in axin2 levels at 10 uM by Western blot analysis; type: cell-based
HCT-116 [10] = assay: Inhibition of Wnt/beta-Catenin signaling in human HCT-116 cells assessed as decrease in cyclin D1 levels at 10 uM by Western blot analysis; type: cell-based
HCT-116 [11] = assay: Inhibition of PARP in human HCT-116 cells assessed as decrease in pADPr levels at 10 uM by Western blot analysis; type: cell-based
HCT-116 [12] = assay: Induction of apoptosis in human HCT-116 cells assessed as viable cells at 5 uM incubated for 3 days by annexinV-FITC/propidium iodide staining based flow cytometry (reference value: 60.0 %); type: functional; details: time 3 day
HCT-116 [13] = assay: Induction of apoptosis in human HCT-116 cells assessed as early apoptotic cells at 5 uM incubated for 3 days by annexinV-FITC/propidium iodide staining based flow cytometry (reference value: 7.67 %); type: functional; details: time 3 day
HCT-116 [14] = assay: Induction of apoptosis in human HCT-116 cells assessed as late apoptotic cells at 5 uM incubated for 3 days by annexinV-FITC/propidium iodide staining based flow cytometry (reference value: 8.71 %); type: functional; details: time 3 day
HCT-116 [15] = assay: Induction of apoptosis in human HCT-116 cells assessed as necrotic cells at 5 uM incubated for 3 days by annexinV-FITC/propidium iodide staining based flow cytometry (reference value: 3.65 %); type: functional; details: time 3 day
HCT-116 [16] = assay: Induction of cell cycle arrest in human HCT-116 cells assessed as G0/G1 phase cells at 5 uM incubated for 3 days by propidium iodide staining based flow cytometry (reference value: 68.35 %); type: functional; details: time 3 day
HCT-116 [17] = assay: Induction of cell cycle arrest in human HCT-116 cells assessed as S phase cells at 5 uM incubated for 3 days by propidium iodide staining based flow cytometry (reference value: 11.26 %); type: functional; details: time 3 day
HCT-116 [18] = assay: Induction of cell cycle arrest in human HCT-116 cells assessed as G2/M phase cells at 5 uM incubated for 3 days by propidium iodide staining based flow cytometry (reference value: 68.35 %); type: functional; details: time 3 day
HCT-116 [19] = assay: Antitumor activity against human HCT-116 cells xenografted in BALB/c nude mouse assessed as tumor growth inhibition at 50 mg/kg, ip administered once daily for 28 days; type: functional; details: time 28 day

T1 sequence (P09874 whole entry): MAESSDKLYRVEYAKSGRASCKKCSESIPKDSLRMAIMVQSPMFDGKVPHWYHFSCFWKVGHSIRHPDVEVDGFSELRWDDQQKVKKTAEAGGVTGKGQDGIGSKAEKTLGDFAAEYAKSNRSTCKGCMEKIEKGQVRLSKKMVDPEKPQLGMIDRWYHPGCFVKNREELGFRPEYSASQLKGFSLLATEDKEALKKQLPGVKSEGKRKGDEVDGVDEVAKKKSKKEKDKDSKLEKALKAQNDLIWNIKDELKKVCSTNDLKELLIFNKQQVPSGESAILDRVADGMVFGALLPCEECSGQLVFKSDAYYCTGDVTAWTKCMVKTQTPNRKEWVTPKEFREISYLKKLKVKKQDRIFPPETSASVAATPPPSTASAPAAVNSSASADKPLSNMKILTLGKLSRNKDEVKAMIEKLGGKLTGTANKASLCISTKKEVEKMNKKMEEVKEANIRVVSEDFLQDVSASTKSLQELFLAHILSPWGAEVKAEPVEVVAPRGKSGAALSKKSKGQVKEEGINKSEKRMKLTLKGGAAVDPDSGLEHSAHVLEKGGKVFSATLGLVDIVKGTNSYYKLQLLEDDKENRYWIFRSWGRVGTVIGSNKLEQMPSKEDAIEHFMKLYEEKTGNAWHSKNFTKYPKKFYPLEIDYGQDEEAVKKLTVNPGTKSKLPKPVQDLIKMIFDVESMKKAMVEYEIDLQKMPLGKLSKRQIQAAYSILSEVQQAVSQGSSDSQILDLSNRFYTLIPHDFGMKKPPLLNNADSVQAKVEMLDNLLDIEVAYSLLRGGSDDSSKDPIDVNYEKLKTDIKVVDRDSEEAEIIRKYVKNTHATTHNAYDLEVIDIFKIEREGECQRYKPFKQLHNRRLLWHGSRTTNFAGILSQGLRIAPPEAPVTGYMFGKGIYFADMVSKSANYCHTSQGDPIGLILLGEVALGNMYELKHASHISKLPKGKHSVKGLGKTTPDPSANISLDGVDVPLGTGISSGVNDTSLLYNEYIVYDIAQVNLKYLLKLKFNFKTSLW

inhibition [1] [%]	inhibition [2] [%]	IC50 [3] [nM]	IC50 [4] [nM]	IC50 [5] [nM]	inhibition [6] [%]	IC50 (MDA-MB-231) [nM]	IC50 (HCT-116 [7]) [nM]	IC50 (MDA-MB-468) [nM]	Compound	CC50 at 168 h [8] [nM]	other results
98	26	–	–	–	–	–	–	–	O=C(Nc1cccc(F)c1)c1ccc(NC(=O)N2CCN(C(=O)c3cc(Cc4n[nH]c(=O)c5ccccc45)ccc3F)CC2)cc1	–	–
98	28	4.08	551	367	12.5	–	–	–	O=C(Nc1ccc(C(F)(F)F)cc1)c1ccc(NC(=O)N2CCN(C(=O)c3cc(Cc4n[nH]c(=O)c5ccccc45)ccc3F)CC2)cc1	–	–
–	–	–	–	–	–	2890	6710	4170	O=c1[nH]nc2c3c(cccc13)N=C(CN1Cc3ccccc3C1)N2 [2X-121]	1390	inhibition (HCT-116 [9]): Active; inhibition (HCT-116 [10]): Active; inhibition (HCT-116 [11]): Active; viability at 5 µM (HCT-116 [12]; Homo sapiens, HCT-116, 72 h, read-out: Activity): 74.8%; Activity (HCT-116 [13]): 6.11%; Activity (HCT-116 [14]): 12.6%; Activity (HCT-116 [15]): 6.45%; Activity (HCT-116 [16]): 64.78%; Activity (HCT-116 [17]): 11.73%; Activity (HCT-116 [18]): 23.49%; inhibition in vivo at 50 mg/kg (HCT-116 [19]; Mus musculus, HCT-116, 672 h, read-out: TGI): 20.2%
–	–	–	–	–	–	5350	5560	2520	O=C(c1cc(Cc2n[nH]c(=O)c3ccccc23)ccc1F)N1CCN(C(=O)C2CC2)CC1 [OLAPARIB]	31100	inhibition (HCT-116 [11]): Active; Activity (HCT-116 [12]): 68.8%; Activity (HCT-116 [13]): 12.9%; Activity (HCT-116 [14]): 14.3%; Activity (HCT-116 [15]): 4.03%; Activity (HCT-116 [16]): 58.46%; Activity (HCT-116 [17]): 7.31%; Activity (HCT-116 [18]): 34.23%; TGI (HCT-116 [19]): 15.36%
96	28	–	–	–	–	–	–	–	O=C(Nc1cccc2cccnc12)c1ccc(NC(=O)N2CCN(C(=O)c3cc(Cc4n[nH]c(=O)c5ccccc45)ccc3F)CC2)cc1	–	–
97	11.5	–	–	–	–	–	–	–	COc1ccc(NC(=O)c2ccc(NC(=O)C3CCN(C(=O)c4cc(Cc5n[nH]c(=O)c6ccccc56)ccc4F)CC3)cc2)cc1	–	–
99	48	0.49	39	14	13	680	700	40	Cc1ccc(NC(=O)c2ccc(NC(=O)N3CCN(C(=O)c4cc(Cc5n[nH]c(=O)c6ccccc56)ccc4F)CC3)cc2)cc1	49200	–
98	–	–	–	–	–	–	–	–	COc1ccc(NC(=O)C2CCN(CC(=O)N3CCN(C(=O)c4cc(Cc5n[nH]c(=O)c6ccccc56)ccc4F)CC3)CC2)cc1	–	–
–	–	–	–	–	86	–	–	–	Oc1nc(-c2ccc(C(F)(F)F)cc2)nc2c1CSCC2	–	inhibition (HCT-116 [9]): Active; inhibition (HCT-116 [10]): Active; inhibition (HCT-116 [11]): Active
99	40	1.62	130	110	20	1290	1040	70	Cc1ccccc1NC(=O)c1ccc(NC(=O)N2CCN(C(=O)c3cc(Cc4n[nH]c(=O)c5ccccc45)ccc3F)CC2)cc1	86700	–
51.5	22.5	–	–	–	22.5	–	–	–	COc1ccc(NC(=O)c2ccc(NC(=O)N3CCN(C(=O)c4cc5cccc(C(N)=O)c5o4)CC3)cc2)cc1	–	–
99	36	0.98	506	296	10.5	–	–	–	O=C(Nc1ccccc1F)c1ccc(NC(=O)N2CCN(C(=O)c3cc(Cc4n[nH]c(=O)c5ccccc45)ccc3F)CC2)cc1	–	–
89	38	1.54	214	171	14	960	510	110	O=C(Nc1ccc(F)cc1)c1ccc(NC(=O)N2CCN(C(=O)c3cc(Cc4n[nH]c(=O)c5ccccc45)ccc3F)CC2)cc1	37400	–
99	29.5	–	–	–	–	–	–	–	Cc1cccc(NC(=O)c2ccc(NC(=O)N3CCN(C(=O)c4cc(Cc5n[nH]c(=O)c6ccccc56)ccc4F)CC3)cc2)c1	–	–

Source: ChEMBL document CHEMBL5120857, “Rational design, synthesis and biological evaluation of dual PARP-1/2 and TNKS1/2 inhibitors for cancer therapy” (Eur J Med Chem, 2022)
